Measured values: ChEMBL document CHEMBL3091358, “Structures of human acetylcholinesterase bound to dihydrotanshinone I and territrem B show peripheral site flexibility” (ACS Med Chem Lett, 2013)

Experiments:
Acetylcholinesterase [1] = biological target: T1, Acetylcholinesterase (Homo sapiens, UniProt P22303); assay: Inhibition of acetylcholinesterase (unknown origin)
Acetylcholinesterase [2] = biological target: T1, Acetylcholinesterase; assay: Inhibition of human acetylcholinesterase

T1 sequence (P22303 whole entry): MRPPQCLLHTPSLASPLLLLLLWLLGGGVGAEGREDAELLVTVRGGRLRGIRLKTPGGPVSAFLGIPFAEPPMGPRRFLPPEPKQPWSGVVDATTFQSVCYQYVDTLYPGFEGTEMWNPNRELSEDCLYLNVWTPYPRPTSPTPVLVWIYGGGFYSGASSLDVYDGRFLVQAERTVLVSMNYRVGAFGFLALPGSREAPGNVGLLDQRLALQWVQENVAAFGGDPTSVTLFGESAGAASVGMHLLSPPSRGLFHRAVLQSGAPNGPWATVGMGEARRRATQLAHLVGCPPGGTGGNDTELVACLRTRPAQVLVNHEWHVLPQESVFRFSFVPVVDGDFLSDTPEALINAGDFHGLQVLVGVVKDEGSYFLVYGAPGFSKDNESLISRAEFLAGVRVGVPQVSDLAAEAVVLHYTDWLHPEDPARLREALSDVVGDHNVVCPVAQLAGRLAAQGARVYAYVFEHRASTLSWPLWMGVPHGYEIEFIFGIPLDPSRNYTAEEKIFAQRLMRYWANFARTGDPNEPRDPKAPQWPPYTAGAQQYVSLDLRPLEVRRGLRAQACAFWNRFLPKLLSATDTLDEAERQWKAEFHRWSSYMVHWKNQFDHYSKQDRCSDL

Compound | IC50 (Acetylcholinesterase [1]) [nM] | Ki (Acetylcholinesterase [2]) [nM]
Cc1coc2c1C(=O)C(=O)c1c-2ccc2c(C)cccc12 [TANSHINONE I] | > 50000 | –
Cc1coc2c1C(=O)C(=O)c1c-2ccc2c1CCCC2(C)C [TANSHINONE IIA] | > 140000 | –
Cc1cccc2c3c(ccc12)C1=C(C(=O)C3=O)[C@@H](C)CO1 [DIHYDROTANSHINONE I] | 1000 | 600
